Reference: ChEMBL document CHEMBL1142426, “Design and synthesis of macrocyclic peptidyl hydroxamates as peptide deformylase inhibitors” (2008)
pKi: −log10 of the molar value. ≈ marks a conversion by molar mass, not a printed value. Calls of active or inactive are those of the source. The rule behind the calls is not given here.

Key:
[1] = biological target: T1, Peptide deformylase (Escherichia coli) (UniProt Q9JN24); experiment: Inhibition of cobalt-substituted Escherichia coli PDF
T1 sequence (whole entry): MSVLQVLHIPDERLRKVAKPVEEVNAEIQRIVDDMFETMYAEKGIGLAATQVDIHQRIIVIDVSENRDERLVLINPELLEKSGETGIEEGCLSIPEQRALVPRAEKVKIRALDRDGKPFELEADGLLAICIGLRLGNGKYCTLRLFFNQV

[2] = biological target: T1, Peptide deformylase (Escherichia coli); experiment: Slow-binding inhibition of cobalt-substituted Escherichia coli PDF
[3] = test system: Escherichia coli; experiment: Antimicrobial activity against Escherichia coli; type: functional
[4] = test system: Bacillus subtilis; experiment: Antimicrobial activity against Bacillus subtilis; type: functional

pKi [1]	pKi [2]	MIC [3] [µg/mL]	MIC [4] [µg/mL]	SMILES	Activity [3]
6.68	8.36	> 24	2 (≈ 5.41 µM)	CC(C)(C)[C@@H]1NC(=O)[C@@H](CC(=O)NO)CCCCCCCCCNC1=O	
< 4.70				CC(C)(C)[C@@H]1NC(=O)[C@@H](CC(=O)NO)NC(=O)CCCCCCCCCNC1=O	
4.80	5.85		> 24	O=C(C[C@H]1CCCCCCCCCNC(=O)[C@@H]2CCCN2C1=O)NO	inactive
6.96	9.48			CC(C)(C)[C@@H]1NC(=O)[C@@H](CN(O)C=O)CCCCCCCCCNC1=O	
